# According to ChEMBL document CHEMBL1201862, “PubChem BioAssay data set” (2004):
#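 Assay format: 96-well plates, 48-hour exposure. GI50 marks 50% less growth.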 The source made the active and inactive calls. No stated cut-off is given here; in the data, active = GI50 up to about 1.1 µM and inactive = higher.
# Key:
# Assay in all cases: growth of human tumour cells (NCI), 48 h
# 786-0 = system: 786-0
# A549 = system: A549
# ACHN = system: ACHN
# CAKI-1 = system: CAKI-1
# CCRF-CEM = system: CCRF-CEM
# COLO 205 = system: COLO 205
# DLD-1 = system: DLD-1
# DMS-114 = system: DMS-114
# DMS-273 = system: DMS-273
# EKVX = system: EKVX
# HCC 2998 = system: HCC 2998
# HCT-116 = system: HCT-116
# HCT-15 = system: HCT-15
# HOP-18 = system: HOP-18
# HOP-62 = system: HOP-62
# HOP-92 = system: HOP-92
# HT-29 = system: HT-29
# IGROV-1 = system: IGROV-1
# K562 = system: K562
# KM-20L2 = system: KM-20L2
# KM12 = system: KM12
# LOX IMVI = system: LOX IMVI
# LXFL 529 = system: LXFL 529
# M14 = system: M14
# M19-MEL = system: M19-MEL
# MOLT-4 = system: MOLT-4
# Malme-3M = system: Malme-3M
# NCI-H226 = system: NCI-H226
# NCI-H23 = system: NCI-H23
# NCI-H460 = system: NCI-H460
# NCI-H522 = system: NCI-H522
# OVCAR-3 = system: OVCAR-3
# OVCAR-4 = system: OVCAR-4
# OVCAR-5 = system: OVCAR-5
# OVCAR-8 = system: OVCAR-8
# RPMI-8226 = system: RPMI-8226
# RXF 393 = system: RXF 393
# RXF 631 = system: RXF 631
# SF-268 = system: SF-268
# SF-295 = system: SF-295
# SF-539 = system: SF-539
# SK-MEL-28 = system: SK-MEL-28
# SK-MEL-2 = system: SK-MEL-2
# SK-MEL-5 = system: SK-MEL-5
# SK-OV-3 = system: SK-OV-3
# SN12C = system: SN12C
# SNB-19 = system: SNB-19
# SNB-75 = system: SNB-75
# SNB-78 = system: SNB-78
# SW-620 = system: SW-620
# TK-10 = system: TK-10
# U-251 = system: U-251
# UACC-257 = system: UACC-257
# UACC-62 = system: UACC-62
# UO-31 = system: UO-31
# XF498 = system: XF498
smiles,measurement,setting,value
O=C(O)[C@H](NS(=O)(=O)c1ccc([N+](=O)[O-])cc1)c1ccccc1,GI50,786-0,> 100 µM (inactive)
same,GI50,A549,> 100 µM (inactive)
same,GI50,ACHN,> 100 µM (inactive)
same,GI50,CAKI-1,> 100 µM (inactive)
same,GI50,CCRF-CEM,> 100 µM (inactive)
same,GI50,COLO 205,> 100 µM (inactive)
same,GI50,DLD-1,> 100 µM (inactive)
same,GI50,DMS-114,> 100 µM (inactive)
same,GI50,DMS-273,> 100 µM (inactive)
same,GI50,EKVX,> 100 µM (inactive)
same,GI50,HCC 2998,> 100 µM (inactive)
same,GI50,HCT-116,> 100 µM (inactive)
same,GI50,HCT-15,> 100 µM
same,GI50,HOP-18,> 100 µM (inactive)
same,GI50,HOP-62,> 100 µM (inactive)
same,GI50,HOP-92,> 100 µM (inactive)
same,GI50,HT-29,> 100 µM (inactive)
same,GI50,IGROV-1,> 100 µM (inactive)
same,GI50,K562,> 100 µM (inactive)
same,GI50,KM-20L2,> 100 µM (inactive)
same,GI50,KM12,> 100 µM (inactive)
same,GI50,LOX IMVI,> 100 µM (inactive)
same,GI50,LXFL 529,> 100 µM (inactive)
same,GI50,M14,> 100 µM (inactive)
same,GI50,M19-MEL,> 100 µM (inactive)
same,GI50,MOLT-4,> 100 µM (inactive)
same,GI50,Malme-3M,> 100 µM (inactive)
same,GI50,NCI-H226,> 100 µM (inactive)
same,GI50,NCI-H23,> 100 µM (inactive)
same,GI50,NCI-H460,> 100 µM (inactive)
same,GI50,NCI-H522,> 100 µM (inactive)
same,GI50,OVCAR-3,> 100 µM (inactive)
same,GI50,OVCAR-4,> 100 µM (inactive)
same,GI50,OVCAR-5,> 100 µM (inactive)
same,GI50,OVCAR-8,> 100 µM (inactive)
same,GI50,RPMI-8226,> 100 µM (inactive)
same,GI50,RXF 393,> 100 µM (inactive)
same,GI50,RXF 631,> 100 µM (inactive)
same,GI50,SF-268,> 100 µM (inactive)
same,GI50,SF-295,> 100 µM (inactive)
same,GI50,SF-539,> 100 µM (inactive)
same,GI50,SK-MEL-28,> 100 µM (inactive)
same,GI50,SK-MEL-2,> 100 µM (inactive)
same,GI50,SK-MEL-5,> 100 µM (inactive)
same,GI50,SK-OV-3,> 100 µM (inactive)
same,GI50,SN12C,> 100 µM (inactive)
same,GI50,SNB-19,> 100 µM (inactive)
same,GI50,SNB-75,> 100 µM (inactive)
same,GI50,SNB-78,> 100 µM (inactive)
same,GI50,SW-620,> 100 µM (inactive)
same,GI50,TK-10,> 100 µM (inactive)
same,GI50,U-251,> 100 µM (inactive)
same,GI50,UACC-257,> 100 µM (inactive)
same,GI50,UACC-62,> 100 µM (inactive)
same,GI50,UO-31,> 100 µM (inactive)
same,GI50,XF498,> 100 µM (inactive)
